Biological target: T1, AsPC-1 HiBiT-KRASG12D (Homo sapiens, UniProt P01116, G12D)
T1 construct: insert the HiBiT tag onto the N-terminus of one or more of the endogenous KRAS alleles; endogenous in cells; host or cells: AsPC-1 (ATCC CRL-1682), CRISPR-Cas9 knock-in clone, one tagged allele
Assay: HiBiT degradation assay (G12D), AsPC-1 HiBiT-KRASG12D cells
Format: cell-based
Conditions: 24 hours treatment; for Dmax: ASPC1, AsPC-1 HiBiT-KRASG12D cells, maximum degradation observed; for DC50: AsPC-1 HiBiT-KRASG12D cells, HiBiT luminescence
Source text: Reagents. […] SW1573 cells are homozygous for the G12C mutation in KRAS, AsPC-1 cells are homozygous for the G12D mutation, and SW620 cells are homozygous for the G12V mutation. […] For degradation assays, 384 well plates were used. Alamar blue was purchased from ThermoFisher scientific (A50101) and used according to manufacturer instructions. The Nano-Glo® HiBiT Lytic Detection System and Nano-Glo® HiBiT Blotting System were purchased from Promega (#N3050 and #N2410) and used according to manufacturer instructions.
To create the AsPC-1 HiBiT-KRASG12D cell line, CRISPR-Cas9 was used to insert the HiBiT tag onto the N-terminus of one or more of the endogenous KRAS alleles. […] After knock-in of the tag, individual clones were isolated by single cell dilution and screened for HiBiT insertion by PCR. […] This clone was used in further studies.
HiBiT degradation assays (G12C and G12D). […] All assays were performed in triplicate. Cells were treated with compounds for 24 hours at 37° C. in an incubator containing 5% CO2. Following treatment, alamar blue was used to determine if any compounds led to a loss in cell viability after 24 hours. The 10× alamar blue reagent was added to a final concentration of 1× as recommended by the manufacturer and cells were returned to the incubator for 4 hours. Plates were then allowed to equilibrate to room temperature and fluorescence was measured using a Perkin-Elmer EnVision. After completion of the fluorescence read, the liquid from each well was removed and the cells were washed with PBS. The Nano-Glo® HiBiT detection reagent was prepared according to the manufacturer's instructions and added to each well after the PBS wash was removed. Following incubation at room temperature for 45 minutes, the luminescence was read using the ultra-sensitive luminescence aperture on the Envision instrument.
Data analysis. Fluorescence values from the alamar blue treatment were normalized to the DMSO-only control for each compound titration.

T1 sequence (P01116 1-188 isoform P01116-2 G12D): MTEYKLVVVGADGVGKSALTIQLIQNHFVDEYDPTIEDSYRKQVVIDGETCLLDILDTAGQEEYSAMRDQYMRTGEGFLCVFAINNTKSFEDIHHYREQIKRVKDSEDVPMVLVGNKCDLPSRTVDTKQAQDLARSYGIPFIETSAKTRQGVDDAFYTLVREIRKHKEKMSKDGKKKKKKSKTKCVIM

Compound | Dmax | DC50
CCc1cccc2cc(O)cc(-c3ncc4c(N5CC6CCC(C5)N6)nc(OC[C@]56CCCN5[C@@H](COC(=O)N5CCN(c7cc([C@H](C(=O)N8C[C@H](O)C[C@H]8C(=O)N[C@@H](C)c8ccc(-c9scnc9C)cc8)C(C)C)on7)CC5)CC6)nc4c3F)c12 (relative stereo) [Compound 110, [(3R*,7aR**)-7a-{[(4-{3,8-diazabicyclo[3.2.1]octan-3-yl}-7-(8-ethyl-3-hydroxynaphthalen-1-yl)-8-fluoropyrido[4,3-d]pyrimidin-2-yl)oxy]methyl}-hexahydro-1H-pyrrolizin-3-yl]methyl 4-{5-[(2R***)-1-[(2S,4R)-4-hydroxy-2-{[(1S)-1-[4-(4-methyl-1,3-thiazol-5-yl)phenyl]ethyl]carbamoyl}pyrrolidin-1-yl]-3-methyl-1-oxobutan-2-yl]-1,2-oxazol-3-yl}piperazine-1-carboxylate] | 80 to 100% | < 600 nM
CCc1cccc2cc(O)cc(-c3ncc4c(N5CC6CCC(C5)N6)nc(OCCN5CCN(c6cc([C@H](C(=O)N7C[C@H](O)C[C@H]7C(=O)N[C@@H](C)c7ccc(-c8scnc8C)cc7)C(C)C)on6)CC5)nc4c3F)c12 (relative stereo) [Compound 134, (2S,4R)-1-[(2R*)-2-[3-(4-{2-[(4-{3,8-diazabicyclo[3.2.1]octan-3-yl}-7-(8-ethyl-3-hydroxynaphthalen-1-yl)-8-fluoropyrido[4,3-d]pyrimidin-2-yl)oxy]ethyl}piperazin-1-yl)-1,2-oxazol-5-yl]-3-methylbutanoyl]-4-hydroxy-N-[(1S)-1-[4-(4-methyl-1,3-thiazol-5-yl)phenyl]ethyl]pyrrolidine-2-carboxamide] | 20 to 60% | 1000 to 3000 nM
CCc1cccc2cc(O)cc(-c3ncc4c(N5CC6CCC(C5)N6)nc(OCCN5CCC(N(C)c6cc([C@H](C(=O)N7C[C@H](O)C[C@H]7C(=O)N[C@@H](C)c7ccc(-c8scnc8C)cc7)C(C)C)on6)CC5)nc4c3F)c12 (relative stereo) [Compound 135, (2S,4R)-1-[(2R*)-2-{3-[(1-{2-[(4-{3,8-diazabicyclo[3.2.1]octan-3-yl}-7-(8-ethyl-3-hydroxynaphthalen-1-yl)-8-fluoropyrido[4,3-d]pyrimidin-2-yl)oxy]ethyl}piperidin-4-yl)(methyl)amino]-1,2-oxazol-5-yl}-3-methylbutanoyl]-4-hydroxy-N-[(1S)-1-[4-(4-methyl-1,3-thiazol-5-yl)phenyl]ethyl]pyrrolidine-2-carboxamide] | 80 to 100% | < 600 nM
CCc1cccc2cc(O)cc(-c3ncc4c(N5CC6CCC(C5)N6)nc(OCCN5CCN(c6cc([C@@H](C(=O)N7C[C@H](O)C[C@H]7C(=O)N[C@@H](C)c7ccc(-c8scnc8C)cc7)C(C)C)on6)CC5)nc4c3F)c12 (relative stereo) [Compound 136, (2S,4R)-1-[(2R*)-2-[3-(4-{2-[(4-{3,8-diazabicyclo[3.2.1]octan-3-yl}-7-(8-ethyl-3-hydroxynaphthalen-1-yl)-8-fluoropyrido[4,3-d]pyrimidin-2-yl)oxy]ethyl}piperazin-1-yl)-1,2-oxazol-5-yl]-3-methylbutanoyl]-4-hydroxy-N-[(1S)-1-[4-(4-methyl-1,3-thiazol-5-yl)phenyl]ethyl]pyrrolidine-2-carboxamide] |  | > 3000 nM
CCc1cccc2cc(O)cc(-c3ncc4c(N5CC6CCC(C5)N6)nc(OCCN5CCC(N(C)c6cc([C@@H](C(=O)N7C[C@H](O)C[C@H]7C(=O)N[C@@H](C)c7ccc(-c8scnc8C)cc7)C(C)C)on6)CC5)nc4c3F)c12 (relative stereo) [Compound 137, (2S,4R)-1-[(2R*)-2-{3-[(1-{2-[(4-{3,8-diazabicyclo[3.2.1]octan-3-yl}-7-(8-ethyl-3-hydroxynaphthalen-1-yl)-8-fluoropyrido[4,3-d]pyrimidin-2-yl)oxy]ethyl}piperidin-4-yl)(methyl)amino]-1,2-oxazol-5-yl}-3-methylbutanoyl]-4-hydroxy-N-[(1S)-1-[4-(4-methyl-1,3-thiazol-5-yl)phenyl]ethyl]pyrrolidine-2-carboxamide] | 20 to 60% | 1000 to 3000 nM
CCc1cccc2cc(O)cc(-c3ncc4c(N5CC6CCC(C5)N6)nc(OCCN5CCC(Oc6cc([C@H](C(=O)N7C[C@H](O)C[C@H]7C(=O)N[C@@H](C)c7ccc(-c8scnc8C)cc7)C(C)C)on6)CC5)nc4c3F)c12 (relative stereo) [Compound 138, (2S,4R)-1-[(2R*)-2-{3-[(1-{2-[(4-{3,8-diazabicyclo[3.2.1]octan-3-yl}-7-(8-ethyl-3-hydroxynaphthalen-1-yl)-8-fluoropyrido[4,3-d]pyrimidin-2-yl)oxy]ethyl}piperidin-4-yl)oxy]-1,2-oxazol-5-yl}-3-methylbutanoyl]-4-hydroxy-N-[(1S)-1-[4-(4-methyl-1,3-thiazol-5-yl)phenyl]ethyl]pyrrolidine-2-carboxamide] | 80 to 100% | < 600 nM
CCc1cccc2cc(O)cc(-c3ncc4c(N5CC6CCC(C5)N6)nc(OCCN5CCC(Oc6cc([C@@H](C(=O)N7C[C@H](O)C[C@H]7C(=O)N[C@@H](C)c7ccc(-c8scnc8C)cc7)C(C)C)on6)CC5)nc4c3F)c12 (relative stereo) [Compound 139, (2S,4R)-1-[(2R*)-2-{3-[(1-{2-[(4-{3,8-diazabicyclo[3.2.1]octan-3-yl}-7-(8-ethyl-3-hydroxynaphthalen-1-yl)-8-fluoropyrido[4,3-d]pyrimidin-2-yl)oxy]ethyl}piperidin-4-yl)oxy]-1,2-oxazol-5-yl}-3-methylbutanoyl]-4-hydroxy-N-[(1S)-1-[4-(4-methyl-1,3-thiazol-5-yl)phenyl]ethyl]pyrrolidine-2-carboxamide] | < 20% | 1000 to 3000 nM
CCc1cccc2cc(O)cc(-c3ncc4c(N5CC6CCC(C5)N6)nc(OCCN5CCC6(CC5)CN(c5cc([C@H](C(=O)N7C[C@H](O)C[C@H]7C(=O)N[C@@H](C)c7ccc(-c8ccnn8C)cc7)C(C)C)on5)C6)nc4c3F)c12 (relative stereo) [Compound 140, (2S,4R)-1-[(2R*)-2-[3-(7-{2-[(4-{3,8-diazabicyclo[3.2.1]octan-3-yl}-7-(8-ethyl-3-hydroxynaphthalen-1-yl)-8-fluoropyrido[4,3-d]pyrimidin-2-yl)oxy]ethyl}-2,7-diazaspiro[3.5]nonan-2-yl)-1,2-oxazol-5-yl]-3-methylbutanoyl]-4-hydroxy-N-[(1S)-1-[4-(1-methyl-1H-pyrazol-5-yl)phenyl]ethyl]pyrrolidine-2-carboxamide] | 80 to 100% | < 600 nM
CCc1cccc2cc(O)cc(-c3ncc4c(N5CC6CCC(C5)N6)nc(OCCN5CCC6(CC5)CN(c5cc([C@@H](C(=O)N7C[C@H](O)C[C@H]7C(=O)N[C@@H](C)c7ccc(-c8ccnn8C)cc7)C(C)C)on5)C6)nc4c3F)c12 (relative stereo) [Compound 141, (2S,4R)-1-[(2R*)-2-[3-(7-{2-[(4-{3,8-diazabicyclo[3.2.1]octan-3-yl}-7-(8-ethyl-3-hydroxynaphthalen-1-yl)-8-fluoropyrido[4,3-d]pyrimidin-2-yl)oxy]ethyl}-2,7-diazaspiro[3.5]nonan-2-yl)-1,2-oxazol-5-yl]-3-methylbutanoyl]-4-hydroxy-N-[(1S)-1-[4-(1-methyl-1H-pyrazol-5-yl)phenyl]ethyl]pyrrolidine-2-carboxamide] | 20 to 60% | 1000 to 3000 nM
CCc1cccc2cc(O)cc(-c3ncc4c(N5CC6CCC(C5)N6)nc(OCCN5CCC(COc6cc([C@@H](C(=O)N7C[C@H](O)C[C@H]7C(=O)N[C@@H](C)c7ccc(-c8ccnn8C)cc7)C(C)C)on6)CC5)nc4c3F)c12 (relative stereo) [Compound 142, (2S,4R*)-1-[(2S)-2-{3-[(1-{2-[(4-{3,8-diazabicyclo[3.2.1]octan-3-yl}-7-(8-ethyl-3-hydroxynaphthalen-1-yl)-8-fluoropyrido[4,3-d]pyrimidin-2-yl)oxy]ethyl}piperidin-4-yl)methoxy]-1,2-oxazol-5-yl}-3-methylbutanoyl]-4-hydroxy-N-[(1S)-1-[4-(1-methyl-1H-pyrazol-5-yl)phenyl]ethyl]pyrrolidine-2-carboxamide] |  | > 3000 nM
CCc1cccc2cc(O)cc(-c3ncc4c(N5CC6CCC(C5)N6)nc(OCCN5CCC(COc6cc([C@H](C(=O)N7C[C@H](O)C[C@H]7C(=O)N[C@@H](C)c7ccc(-c8ccnn8C)cc7)C(C)C)on6)CC5)nc4c3F)c12 (relative stereo) [Compound 143, (2S,4R)-1-[(2R*)-2-{3-[(1-{2-[(4-{3,8-diazabicyclo[3.2.1]octan-3-yl}-7-(8-ethyl-3-hydroxynaphthalen-1-yl)-8-fluoropyrido[4,3-d]pyrimidin-2-yl)oxy]ethyl}piperidin-4-yl)methoxy]-1,2-oxazol-5-yl}-3-methylbutanoyl]-4-hydroxy-N-[(1S)-1-[4-(1-methyl-1H-pyrazol-5-yl)phenyl]ethyl]pyrrolidine-2-carboxamide] | 80 to 100% | < 600 nM
